According to patent US5308625A, “Enhancement of transdermal drug delivery using monoalkyl phosphates and other absorption promoters” (priority 1992, dated 1994):
In brackets after ≈: the same amount, converted by molar mass. Entries after “also recorded” stand apart in the source; their conditions may differ. Read-outs that look alike come from different tables or passages of the source.

What was measured:
[1] = Solubilities of molsidomine in various solvents (saturation at 32° C., HPLC); assay type: physicochemical
Experimental: Molsidomine powder was weighed on weighing paper and transferred into the sample vial. Solvent was transferred into the vial followed by insertion of a small Teflon-coated magnetic stirring bar. The sample vial was screw-capped and placed on top of a multiple stirring system obtained from Florida Scientific, Inc. and housed in an incubation oven at 32° C. The sample solutions were examined for saturation. More molsidomine was added to the solutions until saturation was achieved.
The saturated solutions were filtered through a micro filter to remove excess solid molsidomine. The filtered samples were then assayed for molsidomine concentration by the HPLC analytical method.
In this way, the solubility of molsidomine in the particular vehicle(s) was estimated.

[2] = cited from earlier work
human cadaver epidermis [3] = conditions: pH 6.8
[4] = cited from earlier work; remark: listed apart in the source
[5] = test system: patients with coronary heart disease; conditions: cited from earlier work
[6] = oral dose of 2 mg; cited from earlier work
coronary strips = conditions: cited from earlier work; for dependence of vasodilation action on cysteine: presence / absence of cysteine
[7] = in vivo; cited from earlier work
[8] = test system: soluble guanylate cyclase; conditions: by nitric oxide liberated from the active metabolite SIN-1A; cited from earlier work
human skin = conditions: in vivo; cited from earlier work
human cadaver epidermis [9] = assay: Skin flux through human cadaver epidermis (modified Franz vertical diffusion cell, 32° C)

With CCOC(=O)[N-]c1cn(N2CCOCC2)n[o+]1 [Molsidomine, N-5-ethoxycarbonyl-3-morpholinosydnonimine] the solubility ([1]; aqueous buffer, Phosphate buffer pH 5.68, read-out: Solubilities) was 12.3 ± 1.8 mg/mL (≈ 50.8 mM), the solubility ([1]; organic solvent or mixture, Propylene Glycol (PG), read-out: Solubilities) was 85.5 ± 3.9 mg/mL (≈ 353 mM) and the solubility ([1]; organic solvent or mixture, propylene glycol and propylene glycol with 10% of oleic acid, lauryl alcohol or PGML, read-out: solubility) was about 90 mg/mL (≈ 372 mM). The solubility ([1]; pH 6.8, aqueous buffer, Phosphate buffer pH 6.80, read-out: Solubilities) was 12.1 ± 1.3 mg/mL (≈ 50 mM), the solubility ([1]; propylene glycol:lauryl alcohol (10%), organic solvent or mixture, PG:Lauryl Alcohol (10%), read-out: Solubilities) was 89.3 ± 1.5 mg/mL (≈ 369 mM) and the solubility ([1]; propylene glycol:oleic acid (10%), organic solvent or mixture, PG:Oleic Acid (10%), read-out: Solubilities) was 88.1 ± 0.7 mg/mL (≈ 364 mM). The solubility ([1]; propylene glycol:pgml (10%), organic solvent or mixture, PG:PGML (10%), read-out: Solubilities) was 92.9 ± 2.8 mg/mL (≈ 384 mM), the Saturated solubility ([2]; Glycerin, 25° C.) was 1.80% and the Saturated solubility ([2]; Glycol salicylate, 25° C.) was 15.1%. The Saturated solubility ([2]; Isopropyl myristate, 25° C.) was 0.09%, the Saturated solubility ([2]; Octyl.decyl oil, 25° C.) was 0.36% and the Saturated solubility ([2]; Oleic Acid, 25° C.) was 1.37%. For the same compound, the Saturated solubility ([2]; PEG 400, 25° C.) was 5.23%, the “Solubility (in words)” value ([2]; in CHCl3) was “Freely soluble” and the “Solubility (in words)” value ([2]; in dil HCl, ethanol, ethyl acetate and methanol) was “Soluble”. The “Solubility (in words)” value ([2]; in ether, petr ether) was “very slightly soluble”, the “Solubility (in words)” value ([2]; in propylene glycol and a variety of organic solvents) was “soluble” and the “Solubility (in words)” value ([2]; in water, acetone, benzene) was “sparingly soluble”. For the same compound, the “skin flux from aqueous solution” value (human cadaver epidermis [3]) was 9.7±1.9 μg/hr-cm^2, the “Chemical stability (in words)” value ([4]; aqueous solution of pH 5 to 7) was “very stable; also recorded: most stable” and the t90 ([4]; pH 1-2, 20° C.) was 38 days. The t90 ([4]; pH 4, 20° C.) was 250 days, the t90 ([4]; pH 5-7, 20° C.) was 950 days and the t90 ([4]; pH 10, 20° C.) was 400 days. The t90 ([4]; pH 11, 20° C.) was 40 days, the Photosensitivity ([4]; particularly in sunlight) was “photosensitive” and the “treatment and prevention of anginal pectoris” value ([5]; daily oral dosing of 2 mg for 3 to 4 times, clinical studies) was “effective”. For the same compound, the anti-anginal effect ([5]; human, in vivo) was “sustained anti-anginal effect”, the “duration of anti-anginal effects” value ([5]; single oral dose of 2 mg, patients with coronary heart disease) was 3 to 5 h and the total clearance [6] was 46,000 ml/hr. For the same compound, the tolerance (coronary strips) was “insignificant tolerance” and the metabolism [7] was “can be metabolized to SIN-1”.
In the case of N#CCN(N=O)N1CCOCC1 [SIN-1A], the “dependence of vasodilation action on cysteine” value (coronary strips) is listed as “active in both the presence and absence of cysteine” and the “activation of soluble guanylate cyclase” value [8] is listed as “activates the soluble guanylate cyclase”.
For CCCCCCCCCCCCOP(=O)(O)O [mono-dodecyl phosphate (DDPO4), phosphoric acid mono-dodecyl ester], the “human skin irritation potential” value (human skin) is listed as “very low human skin irritation potential”, the “permeation enhancement of molsidomine (increment of skin flux)” value (human cadaver epidermis [9]; addition of 10% DDPO4 to PGML, FIG. 3) is listed as “four times increment” and the “pirsidomine skin permeation enhancement” value (human cadaver epidermis [9]; pirsidomine) is listed as “showed pirsidomine skin permeation enhancement”.
In the case of O=[N+]([O-])OCC(CO[N+](=O)[O-])O[N+](=O)[O-] [nitroglycerin], the tolerance (coronary strips) is listed as “tolerance toward the drug developed in coronary strips can be antagonized by cysteine” and the “dependence of vasodilation action on cysteine” value (coronary strips) is listed as “depends on the presence of cysteine”.
